Test results taken from patent US7495007B2, “Spiroindolinone derivatives” (Hoffmann-La Roche Inc., priority 2006, dated 2009).

target: interaction between p53 and MDM2 proteins (recombinant GST-tagged MDM2, p53 peptide) (Homo sapiens, UniProt Q00987); experiment: HTRF assay of inhibition of the p53-MDM2 interaction (GST-MDM2 binding to biotinylated p53 peptide); settings: 0.02% BSA
Description: The ability of the compounds to inhibit the interaction between p53 and MDM2 proteins was measured by an HTRF (homogeneous time-resolved fluorescence) assay in which recombinant GST-tagged MDM2 binds to a peptide that resembles the MDM2-interacting region of p53 (Lane et al.). Binding of GST-MDM2 protein and p53-peptide (biotinylated on its N-terminal end) is registered by the FRET (fluorescence resonance energy transfer) between Europium (Eu)-labeled anti-GST antibody and streptavidin-conjugated Allophycocyanin (APC).
Test is performed in black flat-bottom 384-well plates (Costar) in a total volume of 40 uL containing: 90 nM biotinylate peptide, 160 ng/ml GST-MDM2, 20 nM streptavidin-APC (PerkinElmerWallac), 2 nM Eu-labeled anti-GST-antibody (PerkinElmerWallac), 0.2% bovine serum albumin (BSA), 1 mM dithiothreitol (DTT) and 20 mM Tris-borate saline (TBS) buffer as follows: Add 10 uL of GST-MDM2 (640 ng/ml working solution) in reaction buffer to each well. Add 10 uL diluted compounds (1:5 dilution in reaction buffer) to each well, mix by shaking. Add 20 uL biotinylated p53 peptide (180 nM working solution) in reaction buffer to each well and mix on shaker. Incubate at 37° C. for 1 h. Add 20 uL streptavidin-APC and Eu-anti-GST antibody mixture (6 nM Eu-anti-GST and 60 nM streptavidin-APC working solution) in TBS buffer with 0.2% BSA, shake at room temperature for 30 minutes and read using a TRF-capable plate reader at 665 and 615 nm (Victor 5, Perkin ElmerWallac). If not specified, the reagents were purchased from Sigma Chemical Co.

interaction between p53 and MDM2 proteins (recombinant GST-tagged MDM2, p53 peptide), sequence (Q00987 whole entry): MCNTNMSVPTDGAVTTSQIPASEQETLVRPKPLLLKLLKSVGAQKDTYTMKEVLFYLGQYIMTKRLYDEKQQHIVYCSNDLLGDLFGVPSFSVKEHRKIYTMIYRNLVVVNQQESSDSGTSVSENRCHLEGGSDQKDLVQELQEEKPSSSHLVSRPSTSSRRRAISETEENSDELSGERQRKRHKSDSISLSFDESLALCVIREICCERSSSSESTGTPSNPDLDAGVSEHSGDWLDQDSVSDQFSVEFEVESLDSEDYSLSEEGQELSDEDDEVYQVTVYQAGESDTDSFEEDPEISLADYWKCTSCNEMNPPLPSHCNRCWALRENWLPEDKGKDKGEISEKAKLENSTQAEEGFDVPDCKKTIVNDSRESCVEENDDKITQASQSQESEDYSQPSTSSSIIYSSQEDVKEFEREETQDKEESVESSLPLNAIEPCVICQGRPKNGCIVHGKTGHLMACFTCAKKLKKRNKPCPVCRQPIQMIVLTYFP

Row | Compound | IC50
1 | O=C1C[C@@H](c2cccc(Cl)c2)[C@]2(C(=O)Nc3cc(Cl)ccc32)[C@@H](c2ccccc2)N1 (racemic) [Example 14b, (2′R,3R,4′S)-6-chloro-4′-(3-chlorophenyl)-2′-phenylspiro[3H-indole-3,3′-piperidine]-2,6′(1H)-dione] | 0.44 µM
2 | C[C@@H]1C(=O)N[C@H](c2cccc(Cl)c2)[C@@]2(C(=O)Nc3cc(Cl)ccc32)[C@@H]1c1cccc(Cl)c1 (racemic) [Example 20, (2′R,3R,4′S,5′S)-6-chloro-2′,4′-bis(3-chlorophenyl)-5′-methylspiro[3H-indole-3,3′-piperidine]-2,6′(1H)-dione] | 1.81 µM
3 | O=C1C[C@H](C2CCCC2)[C@@]2(C(=O)Nc3cc(Cl)ccc32)[C@H](c2cccc(Cl)c2)N1 (racemic) [Example 5d, (2′S,3S,4′R)-6-chloro-2′-(3-chlorophenyl)-4′-cyclopentylspiro[3H-indole-3,3′-piperidine]-2,6′(1H)-dione] | 2.43 µM

Second part, the compound after the results:

Row | IC50 | Compound
4 | 0.372 µM | Cc1ccccc1[C@H]1N(CC(=O)O)C(=O)C[C@@H](c2cccc(Cl)c2)[C@]12C(=O)Nc1cc(Cl)ccc12 (racemic) [Example 31, (2′R,3R,4′S)-6-chloro-4′-(3-chlorophenyl)-1′-[(hydroxycarbonyl)-methyl]-2′-(2-methylphenyl)spiro[3H-indole-3,3′-piperidine]-2,6′(1H)-dione]
5 | 0.49 µM | CCN1C(=O)C[C@@H](c2cccc(Cl)c2)[C@]2(C(=O)Nc3cc(Cl)ccc32)[C@H]1c1ccccc1C (racemic) [Example 26b, (2′R,3R,4′S)-6-chloro-4′-(3-chlorophenyl)-1′-ethyl-2′-(2-methylphenyl)spiro[3H-indole-3,3′-piperidine]-2,6′(1H)-dione]
